From the METLIN SMRT retention time set (Domingo-Almenara et al. 2019) come the findings set out here.

This series in a line: gradient 5% acetonitrile 3 min, to 50% in 2 min, to 85% in 15 min, held 3 min, 100 µL/min. The conditions noted are these: column: Zorbax Extend-C18 2.1 x 50 mm; eluents: water / acetonitrile, 0.1% formic acid. The essentials:
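Each retention time is based on an adduct peak selected computationally and verified by manual inspection. Measurements used HPLC–quadrupole time-of-flight mass spectrometry in positive and negative ionization mode on mixtures of ~100 pure standards. Chromatography ran on a Zorbax Extend-C18 column (2.1 × 50 mm, 1.8 μm) at 100 μL/min with water and acetonitrile, each containing 0.1% formic acid, and dead and dwell volumes of 40 μL and 900 μL.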
For the compound `O=S(=O)(NC1CCCCC1)c1ccc(-c2nnc(C3CC3)o2)o1`, the RP-LC retention time worked out at 940 s. Then `COc1ccc(OC)c(S(=O)(=O)N2CCC(N3C[C@H](OC)[C@@H]3c3cccnc3)CC2)c1`, with 619 s. Then `Cc1ccc(-n2cc(C3=CCN(CC(=O)NCc4cccs4)CC3)cn2)cc1C`, with 735 s; and `Cc1cc2nn(CC(=O)N(C)c3ccccc3)c(=O)n2c(Nc2ccc(C)c(C)c2)n1`, with 1100 s; and `N#Cc1ccc(Cl)cc1NC(=O)c1cccn(Cc2cccc(C(F)(F)F)c2)c1=O`, with 1090 s. Then `CCOc1ccc(-c2ccc(=O)n(CCc3nc(-c4cccc(F)c4)no3)n2)cc1`, with 1040 s; and `COc1cccc2cc(C(=O)Nc3nc(C)cs3)oc12`, with 804 s; and `Cc1nn(-c2nc(-c3ccc(F)cc3)cs2)c(C)c1CC(=O)N1CCc2ccccc2C1`, with 1220 s. For `CN(C)CCCN1c2ccccc2Sc2ccc(C(F)(F)F)cc21`, the RP-LC retention time came to 885 s. The compound `O=C(c1cc(-c2cccnc2)n[nH]1)N1CCN(C(=O)c2cc3ccccc3[nH]2)CC1` returned an RP-LC retention time of 633 s.

In the case of `CCCc1nnsc1C(=O)Nc1nnc(Cc2ccc(F)cc2)o1`, the RP-LC retention time came to 890 s. `Cc1nnc2cc(N3CCN(Cc4csc5c4CCCC5)CC3)cnn12` had an RP-LC retention time of 589 s. The figure for `CCCNC(=O)c1cc(-c2ccccc2)cn1C` is 910 s; for `COc1ccccc1CCC(=O)N1CCn2c(C)nnc2C1` it is 607 s; for `COC(=O)c1ccc(-c2nc3cnccn3c2Nc2ccc(C)c(Cl)c2)cc1` it is 1050 s. Then `Cc1ccc2nc(-c3ccc(N(C)C)cc3)c(Nc3ccc4c(c3)OCCO4)n2c1`, with 726 s; and `O=C(N[C@H]1C[C@@H]2C[C@H]1N(C(=O)c1cccc(C(F)(F)F)c1)C2)c1cccs1`, with 839 s. With `c1ccc(-c2n[nH]c(C3CCCCN3)n2)cc1` (stereo not given), the RP-LC retention time came to 574 s. The compound `COCCN1C(=O)c2ccccc2C(C(=O)NCCC(C)C)C1c1cccs1` (stereo not given) came in with an RP-LC retention time of 874 s. The compound `CN(C)c1ccc(NC(=O)Cn2nc3c(Oc4ccc(Cl)cc4)nccn3c2=O)cc1` returned an RP-LC retention time of 674 s. `Cc1ccc(Cl)c2c1NC(=O)C2(O)CC(=O)c1ccc(F)cc1` (stereo not given) returned an RP-LC retention time of 786 s.

`Cc1nc(-c2ccccc2)oc1CC(=O)N1CCCCCC1` had an RP-LC retention time of 868 s. Consider `CCN1CCN(c2cc(C)c3cc(NC(=S)N4CCN(c5ccccc5)CC4)ccc3n2)CC1`, for which the RP-LC retention time is 603 s.

Consider `Cc1sc2ccn(CC(C)C)c(=O)c2c1C(=O)O`, for which the RP-LC retention time was determined as 863 s.

With `O=C(NC1CCCCCC1)c1nnc(-c2ccc(S(=O)(=O)N3CCCC3)cc2)o1`, the RP-LC retention time was found to be 1010 s. Then `Cc1sc2cc(C(=O)NC(C)(C)C)[nH]c2c1CN1CCCCC1`, with 681 s; and `Cc1ccc(CNc2nnc(N3CCOCC3)c3ccccc23)cc1`, with 678 s; and `CCc1ccc(NS(=O)(=O)c2cc3c(s2)CCN(C(=O)C2CCC2)C3)cc1`, with 859 s. The figure for `CC1CCN(C(=O)c2ccc(CN3CCN(Cc4ccc(F)cc4)C(=O)C3=O)cc2)CC1` is 783 s; for `CCCn1nc(CNC(=O)CNC(C)=O)c2ccccc21` it is 632 s. The figure for `O=C(c1csc(S(=O)(=O)N2CCC(C(=O)N3CCc4ccccc43)CC2)c1)N1CCOCC1` is 779 s; for `Cc1ncsc1CN1CCC(c2nc(-c3ccc(F)cc3)n[nH]2)CC1` it is 918 s. For the compound `CC1CCN(C(=O)C2CCN(S(C)(=O)=O)c3ccccc3O2)CC1` (stereo not given), the RP-LC retention time amounted to 802 s.

Take `Cc1cc(C)n(CC(=O)N2CCC(c3nc(-c4ccncc4)no3)C2)n1` (stereo not given): the RP-LC retention time amounted to 839 s. The figure for `CCCCNC(=O)C1CCN(c2cc(N3CCSCC3)ncn2)CC1` is 631 s; for `Cc1ccsc1CN1CC(Oc2ccc(-c3noc(-c4ccncc4)n3)cc2)C1` it is 715 s; for `Cc1nc(-c2cn(C)c3ncccc23)sc1C(=O)NCc1ccc2c(c1)OCO2` it is 826 s. The figure for `Cc1ccc(CNC(=O)C2CCN(S(=O)(=O)c3cc(C(=O)N4CCCC4)n(C)c3)CC2)cc1` is 872 s. Then `CCCNC(=O)CN1CCN(Cc2ccc(F)cc2)C1=O`, with 688 s.

`COc1ccc(-c2nn3c(-c4ccc5ccccc5n4)nnc3s2)cc1` gave an RP-LC retention time of 975 s. Then `CCCc1noc(-c2ccc(-n3ncc(C(=O)NC4CCCC4)c3C)nc2)n1`, with 1030 s; and `O=c1c2cc(-c3cccs3)nn2cnn1Cc1nc(-c2ccc(Cl)cc2)no1`, with 1150 s. For `CCCN1C(=O)c2cccnc2Sc2cc(C(=O)N3CCC(C)CC3)ccc21`, the RP-LC retention time was 856 s. The compound `Cc1noc(C)c1CC(=O)N1CCc2ccccc2[C@H]1C` gave an RP-LC retention time of 732 s. The figure for `CC(C)CCNC(=O)C1(C)CN(S(=O)(=O)c2ccccc2)CC(=O)N1c1ccc(F)cc1F` (stereo not given) is 972 s; for `COc1cccc(CNC(=O)c2c(C(F)(F)F)nn(C)c2C)c1` it is 722 s; for `COc1ccccc1COC(=O)C1=CN(Cc2ccccc2)S(=O)(=O)N=C1C` it is 1130 s. As to `COC(=O)c1ccc(NC(=O)C(=O)NCCc2ccc(N3CCCC3)cc2)cc1`, the RP-LC retention time worked out at 910 s.

On to `Cc1ccc(S(=O)(=O)N2CCC(n3cnnc3C(C)C)CC2)cc1F`, for which the RP-LC retention time worked out at 756 s. The compound `O=C(Cn1c(-c2ccc(F)cc2)nc2ccccc21)N1CCCCC1` returned an RP-LC retention time of 675 s.

Take `COc1ccc(CN(Cc2ccccc2)Cc2cc(=O)n3ccccc3n2)cc1`: the RP-LC retention time is 666 s. Consider `COc1cccc(-c2nnc(Cc3nc(-c4ccc(SC)cc4)no3)o2)c1`, for which the RP-LC retention time is 1050 s.

`COC(=O)CNC(=O)NC(C(=O)N1CCc2ccccc21)c1ccccc1` (stereo not given) registered an RP-LC retention time of 792 s. `CCCN(C)c1nccn2c(=O)n(CC(=O)Nc3cccc(C(F)(F)F)c3)nc12` showed an RP-LC retention time of 753 s. `CN1C(=O)c2cc(S(=O)(=O)NC3CCCCC3)ccc2Oc2cccnc21` displayed an RP-LC retention time of 929 s. For the compound `CCNC(=O)C1CCCN(c2nc3ncn(CC(=O)Nc4ccc(C)c(C)c4)c(=O)c3s2)C1` (stereo not given), the RP-LC retention time is 711 s.

`Cc1ccc(CN2CCN(CC(=O)NC3CCN(Cc4ccccc4)CC3)C(=O)C2=O)cc1` yielded an RP-LC retention time of 614 s. Then `Cc1nc(C(=O)NCC2CCCCC2)c(C)o1`, with 922 s; and `Cc1cccc(NC(=O)N2CCN(c3cc(C)nc(N4CCCC4)n3)CC2)c1`, with 680 s. The figure for `CCN1C(=O)COc2ccc(-c3noc(Cc4ccc(OC)cc4)n3)cc21` is 1000 s.
